# Measured values reported in patent publication US10865176B2, “Small molecule modulators of microRNA-34a” (The Chinese University of Hong Kong, priority 2012, dated 2020).
# Marks after values point to notes of the source that are not given here.
# Tests used:
# HepG2 xenografted tumor = assay: HepG2 xenografted nude mice model, tumor growth; assay type: in vivo; details: for Tumor growth inhibition (%) / Tumor weight (g): gavage once every two days; for Tumor growth inhibition (%): 24 d; for Tumor weight (g): day 24, mean (95% CI)
# Procedure: Tumor volume was calculated as [(Length×Width×Height)[…]]. Treatment was continued for 24 d. Finally, all mice were sacrificed and tumors were excised. Tumor weight was recorded.
# HepG2 xenografted tumors = assay: CD31 immunohistochemical staining of HepG2 xenografted tumors (microvessel density); assay type: in vivo, nude mice; details: Rubone treated tumors; control group 67.50; p=0.0098
# Procedure: Immunohistochemical staining was performed on HepG2 xenografted tumor tissues with CD31 specific antibody (Cat #: Y059114, Abcam, Cambridge, Mass.). Subcutaneous tumor tissue sections were incubated with anti-CD31 overnight at 4° C. Mean microvessel density was calculated by averaging vessel counts from three random fields per slide.
# p53 [1] = target: p53 (Homo sapiens, UniProt P04637); assay: ChIP assay, p53 occupancy on miR-34a promoter; assay type: cell-based; details: HepG2 cells, 10 μM
# Sequence of p53 (Homo sapiens, UniProt P04637) (P04637 whole entry): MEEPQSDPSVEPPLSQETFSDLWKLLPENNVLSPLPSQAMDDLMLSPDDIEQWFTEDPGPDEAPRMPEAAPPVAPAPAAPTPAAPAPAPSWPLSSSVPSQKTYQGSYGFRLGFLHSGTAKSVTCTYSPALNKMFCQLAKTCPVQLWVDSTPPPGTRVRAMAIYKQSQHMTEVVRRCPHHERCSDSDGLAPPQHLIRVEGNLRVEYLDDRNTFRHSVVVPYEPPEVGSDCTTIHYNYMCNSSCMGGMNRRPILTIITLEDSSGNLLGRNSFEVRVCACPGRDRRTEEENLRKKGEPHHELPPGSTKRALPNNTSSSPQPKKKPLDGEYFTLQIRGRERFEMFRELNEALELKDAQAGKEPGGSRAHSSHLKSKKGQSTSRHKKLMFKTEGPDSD
# Procedure: (§1) ChIP assay was performed as described before (26). Cross-linked chromatin were incubated overnight with anti-H3 (Cat #: 9003, Cell Signaling Technology), IgG (Cat #: 9003, Cell Signaling Technology), p53 (Cat #: sc-106, Santa Cruz, Cambridge, Mass.). The precipitated DNA were quantitated absolutely by real-time PCR and normalized by respective 2% input.
# p53 [2] = assay: ChIP assay, p53 occupancy on miR-34a promoter; assay type: cell-based, human; details: Bel-7404 cells, 10 μM
# Procedure: as §1
# miR-34a promoter = miR-34a promoter luciferase activity assay in HCC cells; assay type: cell-based, human; details: 10 μM
# Procedure: (§2) The pMIR-REPORT™ luciferase plasmid (1 μg; Ambion) was sequentially double digested with Sac I and Hind III (10 units each, 50 μL reaction; NEB) and was gel purified. Double stranded insert DNA encoding the miR-34a binding site was synthesized through standard oligonucleotide synthesis methods. The sequences used were Forward: 5′z […]-3′ (SEQ ID NO:1) and Reverse: 5′: […]-3′ (SEQ ID NO:2). The insert was hybridized (heated to 95° C., and cooled to 4° C. over 30 min, then held at 4° C. for 60 min) and ligated with T4 ligase (200 units, 10 μL reaction, 1:10 vector/insert ratio; NEB) into the digested pMIR-REPORT™ luciferase vector. Positive colonies were selected by PCR colony screens, and the construction of the pMIR-REPORT™-miR-34a vector was confirmed by double enzyme digestion with NheI, MluI and Nhe I, Hind III (NEB). The luciferase reporter vector containing the miR-34a promoter was kindly provided by Prof. Mendell J T from Johns Hopkins University (21).
# (§3) MiR-34a reporter, the luciferase reporter vector containing miR-34a promoter and the control vectors were transfected into HCC cells 12 h before compound treatment. The Renilla luciferase vector pRL-SV40 was co-transfected as an internal control. HCC cells were then treated with compound for 48-72 h. The luciferase activity was measured by Dual Luciferase Reporter Assay (Promega) with a Wallac VICTOR^3V luminometer. The ratio of firefly luciferase to Renilla expression was calculated for each of the triplicates.
# miR-34a = miR-34a reporter luciferase assay in Huh7 cells; assay type: cell-based, human
# Procedure: as §2
# Huh7 cells were seeded into 96-well plates 12 h prior to transfection. MiR-34a reporter and the control vector were respectively co-transfected with Renilla luciferase pRL-SV40 into Huh7 cells. All transfections were performed in triplicate. The cells were incubated at 37° C. for 4 h followed by the replacement of transfection media with standard DMEM growth media with 10 μM of the natural products library (NPL) compounds (Tim Tec; 0.1% DMSO final concentration). This library contains 640 compounds including natural products and their derivatives. After 48 h of incubation, the media was removed and cells were lysed and the luciferase signals were measured by luciferase assay as described below.
# as §3
smiles,measurement,setting,value
"COc1cc(O)c(C(=O)/C=C/c2cc(OC)c(OC)cc2OC)c(OC)c1 [Rubone, 2′-Hydroxy-2,4,4′,5,6′-pentamethoxychalcone]",Tumor growth inhibition (%),HepG2 xenografted tumor; 20 mg/kg,78.27%
same,Tumor weight (g),HepG2 xenografted tumor; 20 mg/kg,0.256 (95% CI = 0.08 − 0.42)** g
same,Tumor growth inhibition (%),HepG2 xenografted tumor; 50 mg/kg,89.64%
same,Tumor weight (g),HepG2 xenografted tumor; 50 mg/kg,0.122 (95% CI = 0.067 − 0.18)** # g
same,tumor growth inhibition compared with Sorafenib,"HepG2 xenografted tumor; same dosage of 50 mg/kg, p=0.047 vs. sorafenib treated group",stronger tumor growth inhibition than Sorafenib
same,"tube score mean (microvessels, CD31 staining)",HepG2 xenografted tumors,12.50
same,p53 occupancy on miR-34a promoter,p53 [1],significantly increased p53 occupancy
same,p53 occupancy on miR-34a promoter,p53 [2],significantly increased p53 occupancy
same,miR-34a promoter activity,miR-34a promoter; Bel-7404 (p53 mutant),increased
same,miR-34a promoter activity,miR-34a promoter; Hep3B (p53 deletion),no change
same,miR-34a promoter activity,miR-34a promoter; HepG2 (p53 wild type),increased
same,"function as miR-34a activator, re-assayed in triplicate with miR-34a reporter system",miR-34a,functions as the miR-34a activators are confirmed
same,IC50,"miR-34a; Homo sapiens, Huh-7, 48 h",3.8 µM
same,luciferase activities of miR-34a reporter,"miR-34a; indicated concentrations, 48 h",inhibited the luciferase activities in a dose-dependent manner
